In patent publication US20110178015A1, “METHODS OF TREATMENT USING BIASED LIGANDS FOR RECEPTORS SUCH AS THE PTH RECEPTOR” (priority 2007, published 2011):
Entries after “also recorded” stand apart in the source; their conditions may differ.

Tests used:
[1] = tested on: WT and β-arrestin 2−/− mice; assay: Bone mineral density after intermittent daily IP treatment; type: in vivo; details: once daily IP 40 mg/kg/day, 4 and 8 weeks
Procedure: FIG. 3. PTH-βarr increases lumbar spine bone mineral density. The effect of daily administration of vehicle, PTH (1-34)(PTH) or PTH-βarr on bone mineral density after 4 and 8 weeks was measured in the (a) lumbar spine of WT mice (b) lumbar spine of β-arrestin 2−/− (c) femur shaft of WT mice and (d) femoral shaft of β-arrestin 2−/− mice. […] Data represents the mean±SEM of at least 7 independent mouse measurements. (*, P<0.05; **, P<0.01 compared with vehicle treated controls)
β-arrestin 2−/− mice are fertile and present no gross phenotypic abnormalities. Further, no gross alterations in skeletal morphology or size were detected by x-ray analysis of β-arrestin 2−/− mice compared to 6 WT mice (data not shown). To examine the contribution of β-arrestin mediated signaling to regulation of the anabolic effects of PTH on bone, 9 week old WT and β-arrestin 2−/− mice were treated with intermittent (i.e. once daily) IP injection of PTH (1-34) (40 mg/kg/day), the β-arrestin biased agonist PTH-βarr (40 mg/kg/day). Its usually mg/kg/day) or vehicle. Bone mineral density (BMD) measurements were obtained at baseline and serially over 4 to 8 wks (FIG. 2). […] There were no significant differences in whole body BMD or femoral BMD between the WT or β-arrestin 2−/− mice. […] Consistent with earlier reports, these increases in BMD were absent in the PTH(1-34) treated β-arrestin 2−/− mice (FIGS. 2B and D). […] The decrease in BMD in β-arrestin 2−/− mice treated with PTH-βarr, are likely due to the inhibition of G protein mediated signaling as well as the absence of β-arrestin 2 mediated signaling.

[2] = tested on: WT and β-arrestin 2−/− mice; assay: Quantitative microCT of the lumbar spine (trabecular bone); type: in vivo; details: for percent increase in Tb bone density: vs vehicle, 8 weeks
Source text: FIG. 4. β-arrestin 2 dependent signaling contributes to increases in trabecular bone but not cortical bone. Quantitative microCT of the lumbar spine was used to determine the effect vehicle, PTH (1-34) (PTH), or PTH-barr on (a) trabecular bone (Tb) density (BV/TV), (b) Tb thickness and (c) Tb number in WT and β-arrestin 2−/− mice after 8 wks of treatment. PTH and PTH-βarr increased tb density, tb thickness, and tb number in WT treated animals. The effects of PTH-βarr were absent in the β-arrestin −/− animals consistant with a b-arrestin mediated mechanism of anabolic bone formation. Data represent the mean±SEM of at least 7 independent mouse measurements. (***, P<0.001; **, P<0.01; *, P<0.05 compared with vehicle treated WT mice; if, P<0.01; t, P<0.05 compared with vehicle treated β-arrestin 2−/− mice).
Quantitative microCT (qCT) measurements of the lumbar spine were acquired from WT and β-arrestin 2−/− mice after 8 weeks of treatment with vehicle, PTH(1-34), or PTH-βarr. There was no significant difference in the overall trabecular bone density (BV/TV) between vehicle treated WT and β-arrestin 2−/− mice (FIG. 3A). […] These differences in trabecular bone architecture in sham treated animals reflect two potential contributing processes 1) the loss of β-arrestin mediated signaling and 2) the exaggeration of Gs signaling due to the loss of β-arrestin desensitization.

[3] = tested on: osteocalcin, RANKL and OPG gene expression; assay: Calvarial gene expression of bone regulatory proteins by quantitative RT-PCR; type: in vivo, mice
Procedure: FIG. 6 Distinct β-arrestin- and G protein-dependent Pathways Contribute to PTH Receptor-stimulated Gene Expression of Bone Regulatory Proteins. To determine the contributions of β-arrestin mediated signaling, to PTH receptor stimulated transcription of bone regulatory proteins, RNA was isolated from the calvaria of WT and β-arrestin 2−/− mice treated with vehicle, PTH(1-34) (PTH), or PTH-βarr. Gene expression was analyzed by quantitative RT-PCR. (a) Consistent with bone formation PTH and PTH-βarr increased osteocalcin expression in WT calvaria. […] (b) and (c). […] Data represent the mean±SEM from six independent experiments. (***, P<0.001; **, P<0.01; *, P<0.05; compared with vehicle treated WT mice; †††, P<0.001; †, P<0.05 compared with vehicle treated β-arrestin 2−/− mice).
To determine the contribution of β-arrestin mediated signaling to PTH1R-stimulated transcription of bone regulatory proteins, calvarial RNA was isolated from WT and β-arrestin 2−/− mice treated with PTH(1-34), PTH-βarr or vehicle. Gene expression for osteocalcin, as well as receptor activator of nuclear factor-KB ligand (RANKL) and osteoprotegrin (OPG), which activate and inhibit osteoclastic bone resorption respectively, was analyzed by quantitative RTPCR (FIG. 6 A-C).

PTH1 receptor = details: cited from earlier work
[4] = WT mice, 8 weeks of daily treatment
[5] = WT mice, 8 weeks of daily treatment, listed as PTH
[6] = β-arrestin 2−/− mice, 8 weeks of daily treatment
[7] = Gardella 1996, Sneddon 2004, Bisello 2002

Row | Substance | femoral BMD vs vehicle ([1]; WT mice) | femoral BMD vs vehicle ([1]; β-arrestin 2−/− mice) | lumbar spine trabecular bone density (BV/TV) vs vehicle [2, 4] | trabecular number vs vehicle [2, 4] | trabecular thickness vs vehicle [2, 4] | OPG mRNA expression vs vehicle ([3]; WT mice, calvaria) | RANKL mRNA expression vs vehicle ([3]; WT mice, calvaria) | osteocalcin mRNA expression vs vehicle ([3]; WT mice, calvaria) | OPG mRNA expression vs vehicle ([3]; β-arrestin 2−/− mice, calvaria) | RANKL mRNA expression vs vehicle ([3]; β-arrestin 2−/− mice, calvaria) | other results
1 | PTH(1-34) [reference compound] | marked increases | absent | significantly increased | significant increases | significant increases | increases | increases | increases | Neither PTH nor PTH-βarr treatment had a significant effect | Neither PTH nor PTH-βarr treatment had a significant effect | lumbar spine BMD vs vehicle ([1]; WT mice): marked increases; lumbar spine BMD vs vehicle ([1]; β-arrestin 2−/− mice): absent; lumbar spine trabecular bone density (BV/TV) vs vehicle [2, 5]: increased; trabecular number vs vehicle [2, 5]: increased; trabecular thickness vs vehicle [2, 5]: increased; percent increase in Tb bone density ([2]; WT mice): 38%; trabecular bone density (BV/TV) vs vehicle [2, 6]: net increase; trabecular thickness vs vehicle [2, 6]: significant increases; percent increase in Tb bone density ([2]; β-arrestin 2−/− mice): 17%; osteocalcin mRNA expression vs vehicle ([3]; WT mice, calvaria, listed as PTH): increased; osteocalcin mRNA expression vs vehicle ([3]; β-arrestin 2−/− mice, calvaria, listed as PTH): significant increase; also recorded: significantly increased
2 | (D-Trp12, Tyr34)-PTH(7-34) [PTH-βarr] | did not significantly affect | decreases | increased; also recorded: significant increase | increased; also recorded: significant increases | increased; also recorded: significant increases | did not affect | did not affect | increases | Neither PTH nor PTH-βarr treatment had a significant effect | Neither PTH nor PTH-βarr treatment had a significant effect | lumbar spine BMD vs vehicle ([1]; WT mice, 40 mg/kg/day): significant increases; trabecular number vs vehicle [2, 6]: absent; OPG mRNA expression vs vehicle ([3]; WT mice; calvaria; Tyr34)-PTH(7-34)): significantly increases; osteocalcin mRNA expression vs vehicle ([3]; β-arrestin 2−/− mice, calvaria): decrease; PTH1 receptor-Gs coupling / cAMP production (PTH1 receptor; [7]): inverse agonist; arrestin-dependent sequestration / β-arrestin recruitment (PTH1 receptor; [7]): promoting arrestin-dependent sequestration; β-arrestin-dependent ERK1/2 activation (PTH1 receptor; in vitro, Gesty-Palmer 2006): elicit β-arrestin-dependent ERK1/2 activation
